Earlier results, collected in patent US11779012B2, “Compositions and methods for preserving red blood cells and platelets” (RythRx Therapeutics, LLC, priority 2013, dated 2023).

Legend:
[1] = after intravenous administration
[2] = target: pleckstrin homology (PH) domain of Akt (Homo sapiens, UniProt P31749); conditions: binding to PH domain of Akt
pleckstrin homology (PH) domain of Akt, sequence (P31749 5-108 limits assumed): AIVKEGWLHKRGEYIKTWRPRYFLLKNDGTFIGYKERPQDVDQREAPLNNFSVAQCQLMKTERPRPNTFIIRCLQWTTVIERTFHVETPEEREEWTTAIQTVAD

## CN1N=C(N)c2cn([C@@H]3O[C@H](COP(=O)(O)O)[C@@H](O)[C@H]3O)c3ncnc1c23 [TCNP, ((2R,3S,4R,5R)-5-(3-amino-5-methyl-1,4,5,6,8-pentaazaacenaphthylen-1(5H)-yl)-3,4-dihydroxytetrahydrofuran-2-yl)methyl dihydrogen phosphate]
[1]
  half-life (retention of TCNP in human RBC): 89 h
[2]
  Kd: 690 nM
